The values that follow come from US20120035224A1, “Betulin derived compounds as anti-feedants for plant pests” (priority 2006, published 2012).

Assay type in all cases: in vivo
The subject of assay [1] is cabbage white, Mamestra brassicae larvae. The assay is described as follows: Antifeedant activity on cabbage leaf discs, no-choice test. The conditions noted are these: for Leaf mass eaten by the larvae vs. control, Time/0 h: 100 μg/cm^2, 0 h after treatment; for Leaf mass eaten by the larvae vs. control, Time/21 h: 100 μg/cm^2, 21 h after treatment; for Leaf mass eaten by the larvae vs. control, Time/43 h: 100 μg/cm^2, 43 h after treatment; for Leaf mass eaten by the larvae vs. control, Time/73 h: 100 μg/cm^2, 73 h after treatment; for antifeedant activity on the larvae: FIG. 2, no-choice test. How it is done: Antifeedant activity for the […], Mamestra brassicae larvae was tested with six compounds derived from betulin. Discs cut from cabbage leaves, having a diameter of 5 cm, were placed on petridishes and treated with the test agents in an amount of 100 μg/cm^2. One small larva was introduced on each plate. Each agent was tested in 10 parallel studies. Cabbage leaf mass remaining on the dish was weighed after 0, 21, 43 and 73 hours after treatment (hat), and leaf mass eaten by the larva was calculated as percentage based on the control.

Assay [2] relates to Deroceras agreste (field snails) and Deroceras reticulatum (false field snails). Description: Effect on feeding behaviour of snails, half-treated leaf discs. Conditions: for ranking of snail test results: 100 μg/cm^2; for Percentage of the leaf half treated with the test substance vs. total mass eaten: treated half of leaf disc; for Percentage of the leaf half treated with the test substance vs. total mass eaten / Percentage of the control vs. total mass eaten: 36 hours, 100 μg/cm^2 in acetone; for Percentage of the control vs. total mass eaten: untreated half of leaf disc. As for the experimental part:
Deroceras agreste (field snails) and Deroceras reticulatum (false field snails) snails with lengts of about 2 cm, collected from nature, were used in this antifeedant test. Cabbage and lettuce leaves cut into discs with diameters of 4 cm serving as feed plants were placed on petridishes. Half on each leaf disc was treated with the test substance, the other haft serving as the control. One snail was placed on each plate, and only tests where the snail ate the leaf were assayed. The results were recorded at 36 hours after test initiation. Acetone was used as control, while betulin, betulinic acid, betulonic acid and betulin 28-carboxymethoxy mentholester dissolved in aceton served as test substances. The leaves studied were treated with test substances used in amounts of 100 μg/cm^2, The results from this test are presented in the following table 5.

The test system of assay [3] is cabbage white, Mamestra brassicae larvae. Description: Antifeedant activity on cabbage leaf discs, no-choice test. The conditions noted are these: FIG. 3, small larvae (12 to 19 mg), weight after 7 hours vs initial weight.
The subject of assay [4] is lily beetles (Lilioceris lilii) larvae. Description: No-choice feeding test with larvae on brown lily leaves. The conditions noted are these: for decrease of feeding of larvae / Percentage of the eaten relative mass of the leaf: larvae; for Percentage of the eaten relative mass of the leaf: no-choice test, approx. 100 μg/cm^2, ethanol control 65.3. As for the experimental part:
(§1) Antifeedant activity of betulin and betulonic acid was tested for lily beetles (Lilioceris lilii) with adults and larvae using leaves of brownlily plants. The test substances were dissolved in ethanol, and the leaves were treated to achieve a concentration of approx. 100 μg/cm^2 of the test substance. The experiment was carried out with adults as a selection test on a petridisc containing two leaves cut from a brown lily plant. One was treated with the test substance and the other treated with ethanol only. Two adult lilybeetles (Lilioceris lilii) were placed on the disc (male and female). The leaf mass eaten by the animals was counted daily during four days by weighing the leaves; simultaneously the number eggs laid by the adults were counted. 10 parallel tests were performed. The test with larvae was a no-choise-test, where either a treated or untreated leaf of brownlily and one beetle larvae was placed on each disc. 7 parallel tests were performed. Results from the palatability test and the prevention of egglaying test with adults and larvae of lily beetles (Lilioceris lilii) are shown in the following table 7. […] Betulonic acid decreased very efficiently egglaying of adults on the leaves (more than 90%). Betulonic acid decreased feeding of larvae efficiently (92%), with betulin this was not observed. In a no-choise situation the larvae died on the betulonic acid treated leaves, in other test treatments they grew normally.

The subject of assay [5] is strawberry beetles (Galerucella tenella). Description: Palatability and egg laying selection test on strawberry leaves. How it is done: Antifeedant activity of betulin and betulonic acid was tested for strawberry beetles (Galerucella tenella) with adults and larvae using leaves of the plants. The test substances were dissolved in ethanol, and the leaves were treated to achieve a concentration of approx. 100 μg/cm^2 of the test substance. The experiment was carried out as a selection test on a petridisc containing a strawberry leaf having one half treated with the test substance and the other half treated with ethanol only. Two adult strawberry beetles (Galerucella tenella) were placed on the disc (male and female) or two larvae. The number of cavities eaten by the animals were counted daily during four days; simultaneously the number eggs laid by the adults were counted. Both the adults and the larvae had 10 tests. Results from the palatability test and the prevention of egg laying test with strawberry beetles (Galerucella tenella) are shown in the following table 6.

Assay [6] relates to lily beetles (Lilioceris lilii) adults. The assay is described as follows: Palatability and egg laying selection test with adults on brown lily leaves. Conditions: for Percentage of the eaten relative mass of the leaf: selection test, approx. 100 μg/cm^2, four days, ethanol control 76.4. As for the experimental part: as §1
Assay [7] concerns rapeseed beetles of the genus Phyllotreta spp. The assay is described as follows: Antifeedant activity for rapeseed beetles on rapeseed seedlings (palatability test). The conditions noted are these: for % Surface area of the leaves eaten: 100 μg/cm^2 in rapeseed oil on rapeseed seedlings, after one week, rapeseed oil=100%; for prevention of beetle feeding: 100 μg/cm^2, FIG. 1 and table 3. As for the experimental part:
Antifeedant activity for rapeseed beetles of the genus Phyllotreta spp. was tested using betulin 3,28-O-isostearylic diester (prepared as described in example 10), 3,28-diacetoxy betulin (prepared in example 15a), and betulin. Test compounds dissolved in 2 ml of rapeseed oil were sprayed on rapeseed seedlings at the cotyledon stage in an amount of 100 μg/cm^2. The plants thus treated were placed in an insect cage, followed by the introduction of the beetles after 24 hours. In the tests, 20 beetles were used per cage, each cage comprising 3 petridishes with seedlings, one control dish and two different test dishes, the number of the cages (=parallel tests) being 5. Pure rapeseed oil was used as the control. The beetles were allowed free access to all plants, and after one week, the test was stopped, the plants were examined, and feeding damages caused by the beetles were evaluated.
Number of the damaged leaves and the degree of damage were evaluated (% leaf surface area fed, palatability assessment).
Betulin 20,29-epoxy-3β,28-diacetate was used as the control compound, prepared as disclosed in J. Arg. Food Chem. 1995, 43, 2513-2516.

The mark [8] stands for this setting: adults, approx. 100 μg/cm^2, four days, ethanol = 100.
Where [9] appears, read: larvae, approx. 100 μg/cm^2, four days, ethanol = 100.

Marks after values point to notes of the source that are not given here.

With “3,28-C18 alkylene succinic diester of betulin”, in assay [1], the “Leaf mass eaten by the larvae vs. control, Time/0 h” value came to 100%; the “Leaf mass eaten by the larvae vs. control, Time/21 h” value amounted to 93%; the “Leaf mass eaten by the larvae vs. control, Time/43 h” value came to 90%; the “Leaf mass eaten by the larvae vs. control, Time/73 h” value is recorded as 77%.
For the compound `C=C(C)[C@@H]1CC[C@]2(C(=O)O)CC[C@]3(C)C(CCC4[C@@]5(C)CC[C@H](O)C(C)(C)C5CC[C@]43C)C12` (stereo partly drawn) [Betulinic acid, betulinic acid], in assay [1], the “Leaf mass eaten by the larvae vs. control, Time/0 h” value was 100%; the “Leaf mass eaten by the larvae vs. control, Time/21 h” value came out at 46%; the “Leaf mass eaten by the larvae vs. control, Time/43 h” value came to 67%; the “Leaf mass eaten by the larvae vs. control, Time/73 h” value is given as 80%. In assay [1], the “antifeedant activity on the larvae” value is reported as “clearly had antifeedant activities”. Also, in assay [2], the “ranking of snail test results” value is reported as “Best results”, the “Percentage of the leaf half treated with the test substance vs. total mass eaten” value (“Percentage of the leaf half treated” below) stood at 37.6% and the “Percentage of the control vs. total mass eaten” value was 62.4%. Besides, in assay [3], the “weight development of the larvae” value was “lower than the initial weight”.
For the compound `C=C(C)[C@@H]1CC[C@]2(C(=O)O)CC[C@]3(C)C(CCC4[C@@]5(C)CCC(=O)C(C)(C)C5CC[C@]43C)C12` (stereo partly drawn) [Betulonic acid, betulonic acid], in assay [4], the “decrease of feeding of larvae” value turned out to be 92% and the “Percentage of the eaten relative mass of the leaf” value was 5.2%. Moreover, the “fate of larvae on treated leaves” value in assay [4] (no-choice situation) is “died”. Further, in assay [1], the “Leaf mass eaten by the larvae vs. control, Time/0 h” value is reported as 100%; the “Leaf mass eaten by the larvae vs. control, Time/21 h” value turned out to be 94%; the “Leaf mass eaten by the larvae vs. control, Time/43 h” value came to 95%; the “Leaf mass eaten by the larvae vs. control, Time/73 h” value stood at 86%. Further, in assay [2], the “ranking of snail test results” value is “Best results”, the “Percentage of the leaf half treated” value was 25.8% and the “Percentage of the control vs. total mass eaten” value stood at 74.2%. Moreover, in assay [5] (adults), the prevention of feeding result is “approx. 41%” and the “prevention of laying of eggs on the leaves” value is “more than 90%”. Moreover, in assay [5] (setting [8]), the “Percentage of the number or eggs laid by the females on the leaves” value was 8.3% and the “Percentage of the relative number of eaten cavities” value amounted to 58.7%. Moreover, in assay [5] (larvae), the prevention of feeding was 82%. For the same compound, the “Percentage of the relative number of eaten cavities” value in assay [5] (setting [9]) turned out to be 17.8%. In addition, in assay [6], the “decrease of egglaying of adults on the leaves” value is “more than 90%”, the “prevention (decrease) of feeding” value is given as “approx. 78%” and the “Percentage of the eaten relative mass of the leaf” value was found to be 17.0%. Also, in assay [6] (approx. 100 μg/cm^2, ethanol control = 100), the “Percentage of the number or eggs laid by the beetles” value is given as 8.7%.
Consider `CC(=O)OCC12CCC(C3(C)CO3)C1C1CCC3C4(C)CCC(OC(C)=O)C(C)(C)C4CCC3(C)C1(C)CC2` (stereo not drawn) [Betulin 20,29-epoxy-3β,28-diacetate, reference compound], for which, in assay [7], the “% Surface area of the leaves eaten” value is reported as 50%.
As for `C=C(C)[C@@H]1CC[C@]2(CO)CC[C@]3(C)[C@H](CC[C@@H]4[C@@]5(C)CC[C@H](O)C(C)(C)[C@@H]5CC[C@]43C)[C@@H]12` [Betulin, lup-20(29)-ene-3β,28-diol], in assay [4], the “decrease of feeding of larvae” value is given as “not observed” and the “Percentage of the eaten relative mass of the leaf” value stood at 64.2%. Besides, in assay [7], the “prevention of beetle feeding” value is given as “efficiently prevented beetle feeding” and the “% Surface area of the leaves eaten” value worked out at 58%. In assay [1], the “Leaf mass eaten by the larvae vs. control, Time/0 h” value is 100%; the “Leaf mass eaten by the larvae vs. control, Time/21 h” value is reported as 101* %; the “Leaf mass eaten by the larvae vs. control, Time/43 h” value is 193* %; the “Leaf mass eaten by the larvae vs. control, Time/73 h” value was 88%. Also, in assay [2], the “Percentage of the leaf half treated” value worked out at 22.5% and the “Percentage of the control vs. total mass eaten” value was 77.5%. This compound also displayed a prevention of feeding in assay [5] (larvae) of 78%. Further, the “Percentage of the relative number of eaten cavities” value in assay [5] (setting [9]) is given as 21.9%. In assay [6], the “prevention (decrease) of feeding” value was “approx. 47%” and the “Percentage of the eaten relative mass of the leaf” value turned out to be 40.7%.
As for “3,28-O-isostearylic acid diester of betulin [Betulin 3,28-O-isostearylic acid diester]”, in assay [7], the “prevention of beetle feeding” value is “efficiently prevented beetle feeding” and the “% Surface area of the leaves eaten” value worked out at 64%.
With `C=C(C)[C@@H]1CC[C@]2(COC(C)=O)CC[C@]3(C)C(CCC4[C@@]5(C)CC[C@H](OC(C)=O)C(C)(C)C5CC[C@]43C)C12` (stereo partly drawn) [3,28-diacetoxy betulin], the “% Surface area of the leaves eaten” value in assay [7] is listed as 96%.
Take `C=C(C)[C@@H]1CC[C@]2(COC(=O)CO[C@H]3C[C@@H](C)CC[C@@H]3C(C)C)CC[C@]3(C)C(CCC4[C@@]5(C)CC[C@H](O)C(C)(C)C5CC[C@]43C)C12` (stereo partly drawn) [betulin 28-carboxymethoxy menthol ester, 28-carboxymethoxy mentholester of betulin]: in assay [1], the “Leaf mass eaten by the larvae vs. control, Time/0 h” value amounted to 100%; the “Leaf mass eaten by the larvae vs. control, Time/21 h” value is reported as 126* %; the “Leaf mass eaten by the larvae vs. control, Time/43 h” value was 146* %; the “Leaf mass eaten by the larvae vs. control, Time/73 h” value was 94%. In assay [2], the “ranking of snail test results” value was “Best results”, the “Percentage of the leaf half treated” value is listed as 36.6% and the “Percentage of the control vs. total mass eaten” value was found to be 63.4%.
As to “28-C18 alkylene succinic ester of betulin”, in assay [1], the “Leaf mass eaten by the larvae vs. control, Time/0 h” value turned out to be 100%; the “Leaf mass eaten by the larvae vs. control, Time/21 h” value is recorded as 103* %; the “Leaf mass eaten by the larvae vs. control, Time/43 h” value was determined as 82%; the “Leaf mass eaten by the larvae vs. control, Time/73 h” value is 71%. In addition, the “antifeedant activity on the larvae” value in assay [1] was “clearly had antifeedant activities”.
